This is an account of results in patent US8975370B2, “Inhibitor proteins of a protease and use thereof” (Universite de Lausanne, priority 2003, dated 2015).

*1 amine or outer side, *2 acyl side, *3 side chain or, on linkers, in order; H or OH if unused. Where a SMILES comes first, the peptide text is derived from it. The star is where a group is joined. AMC = Cc1cc(=O)oc2cc(N*)ccc12; Suc = O=C(CCC(=O)[*:2])[*:1]; MeOSuc = COC(=O)CCC(=O)*

Test [1] has as its target T1, human neutrophil elastase (HNE) (Homo sapiens, UniProt P08246).
T1 construct: substrate MeOSuc-AAPV-AMC
T1 sequence (P08246 30-267): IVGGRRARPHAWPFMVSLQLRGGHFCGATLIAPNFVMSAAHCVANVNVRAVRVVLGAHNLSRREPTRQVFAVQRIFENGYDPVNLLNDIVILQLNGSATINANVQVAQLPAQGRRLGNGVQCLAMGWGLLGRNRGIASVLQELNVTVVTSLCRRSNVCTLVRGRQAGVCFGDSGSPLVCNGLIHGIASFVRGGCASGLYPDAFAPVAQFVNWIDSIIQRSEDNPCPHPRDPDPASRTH
Briefly: Km of HNE for its fluorogenic substrate (used for ka correction, eq 2). It is filed as biochemical. Conditions: substrate MeOSuc-AAPV-AMC, kinetics in 50 mM Tris pH 7.5, 150 mM NaCl, 0.05% Triton X-100, 0.01% BSA, 25° C. The text has this: (§1) hK2 and hK3 (PSA) were purified from human semen as previously described (Frenette G, Gervais Y, Tremblay R R, Dube J Y. 1998 “Contamination of purified prostate-specific antigen preparations by kallikrein hK2” J Urol 159, 1375-8), anti-hK2 and anti-PSA monoclonal antibodies were a gift from Professor R R Tremblay, Laval University, Canada. Human chymotrypsin (Chtr), urokinase plasminogen activator (uPA), human kallikrein hK1, human plasma kallikrein (PK), human neutrophil elastase (HNE) and commercial ACT (human plasma α1-antichymotrypsin) were purchased from Calbiochem. […]
(§2) The association rate constants for interactions of hK2, chymotrypsin, PK and HNE with different rACTs were determined under pseudo-first order conditions using the progress curve method (Morrison J F, Walsh C T. 1988 “The behavior and significance of slow-binding enzyme inhibitors” Adv. Enzymol. Relat. Areas Mol. Biol 61, 201-301). […] Each reaction was made in reaction buffer (50 mM Tris pH 7.5, 150 mM NaCl, 0.05% Triton X-100, 0.01% BSA) at 25° C. for 45 min and the rate of product formation was measured using a FLx800 fluorescence 96-well microplate reader (Biotek, USA). […]
(§3) For each inhibitor, a kobs was calculated, for four different concentrations of inhibitors, by non linear regression of the data using equation 1. […]

In test [2] the test system is human chymotrypsin (Chtr). As to the kind of experiment: Km of chymotrypsin for its fluorogenic substrate (used for ka correction, eq 2). It is filed as biochemical. Conditions: substrate Suc-AAPF-AMC, kinetics in 50 mM Tris pH 7.5, 150 mM NaCl, 0.05% Triton X-100, 0.01% BSA, 25° C.
Text: as §1, §2, §3

For orientation: Km means the substrate concentration at which the rate is half of its maximum. Turning to `COC(=O)CCC(=O)N[C@@H](C)C(=O)N[C@@H](C)C(=O)N1CCC[C@H]1C(=O)N[C@H](C(=O)Nc1ccc2c(C)cc(=O)oc2c1)C(C)C` [MeOSuc-AAPV-AMC, MeOSuc-Ala-Ala-Pro-Val-AMC] (MeOSuc-AAPV-{AMC}), the Km in test [1] stood at 130 µM.

With `Cc1cc(=O)oc2cc(NC(=O)[C@H](Cc3ccccc3)NC(=O)[C@@H]3CCCN3C(=O)[C@H](C)NC(=O)[C@H](C)NC(=O)CCC(=O)O)ccc12` [Suc-AAPF-AMC, Suc-Ala-Ala-Pro-Phe-AMC] (Suc-AAPF-{AMC}), the Km in test [2] worked out at 145 µM.
